Results from patent US4883807A, “1,2,5,6-tetrahydropyridyl triazoles and tetrazoles useful as fungicides” (Imperial Chemical Industries PLC, priority 1986, dated 1989).

What was measured:
[1] = test system: Cercospora arachidicola; assay: foliar fungal disease control on plants, Cercospora arachidicola on peanut; assay type: in vivo; conditions: 100 ppm foliar spray plus root drench ca. 40 ppm a.i./dry soil, one or two days before inoculation
Procedure: (§1) The technique employed was as follows.
(§2) The plants were grown in John Innes Potting Compost (No. 1 or 2) in 4 cm diameter minipots. The test compounds were formulated either by bead milling with aqueous Dispersol T or as a solution in acetone or acetone/ethanol which was diluted to the required concentration immediately before use. For the foliage diseases, the formulations (100 ppm active ingredient) were sprayed on to the foliage and applied to the roots of the plants in the soil. The sprays were applied to maximum retention and the root drenches to a final concentration equivalent to approximately 40 ppm a.i./dry soil. Tween 20, to give a final concentration of 0.05%, was added when the sprays were applied to cereals.
(§3) For most of the tests the compound was applied to the soil (roots) and to the foliage (by spraying) one or two days before the plant was inoculated with the disease. An exception was the test on Erysiphe graminis in which the plants were inoculated 24 hours before treatment. Foliar pathogens were applied by spray as spore suspensions onto the leaves of test plants. After inoculation, the plants were put into an appropriate environment to allow infection to proceed and then incubated until the disease was ready for assessment. The period between inoculation and assessment varied from four to fourteen days according to the disease and environment.
(§4) The disease control was recorded by the following grading: […]

[2] = test system: Pyricularia oryzae; assay type: in vivo; conditions: 100 ppm foliar spray plus root drench ca. 40 ppm a.i./dry soil, one or two days before inoculation
[3] = test system: Venturia inaequalis; assay: foliar fungal disease control on plants, Venturia inaequalis on apple; assay type: in vivo; conditions: 100 ppm foliar spray plus root drench ca. 40 ppm a.i./dry soil, one or two days before inoculation
Procedure: as §1, §2, §3, §4

[4] = test system: Puccinia recondita; assay: foliar fungal disease control on plants, Puccinia recondita on wheat; assay type: in vivo; conditions: 100 ppm foliar spray plus root drench ca. 40 ppm a.i./dry soil, one or two days before inoculation
Procedure: as §1, §2, §3, §4

[5] = test system: Plasmopara viticola; assay: foliar fungal disease control on plants, Plasmopara viticola on vine; assay type: in vivo; conditions: 100 ppm foliar spray plus root drench ca. 40 ppm a.i./dry soil, one or two days before inoculation
Procedure: as §1, §2, §3, §4

[6] = test system: Erysiphe graminis; assay: foliar fungal disease control on plants, Erysiphe graminis on barley; assay type: in vivo; conditions: 100 ppm foliar spray plus root drench ca. 40 ppm a.i./dry soil; inoculated 24 hours before treatment
Procedure: as §1, §2, §3, §4

[7] = test system: Phytophthora infestans; assay type: in vivo; conditions: 100 ppm foliar spray plus root drench ca. 40 ppm a.i./dry soil, one or two days before inoculation
[8] = test system: Tetranychus urticae (spider mites - adult); assay: whole plant or invertebrate; conditions: in Phaseolus vulgaris, 72 h, read-out: grading of mortality, TUa
[9] = test system: Myzus persicae; assay: whole plant or invertebrate; conditions: in Brassica rapa, 72 h, read-out: grading of mortality, MP
[10] = test system: Meloidogyne incognita; assay: nematode test, tomato root knot eelworm - larvae, semi in-vitro; assay type: in vivo; conditions: 250 ppm, residual, 7 days
Procedure: (§5) The activity of the compounds was determined using a variety of insect, mite and nematode pests. The compounds were used in the form of liquid preparations containing 500 parts per million (ppm) by weight of the compound except for the test on Meloidogyne incognita when liquid preparations of 250 ppm by weight were used. The preparations were made by dissolving the compounds in acetone and diluting the solutions with water containing 0.1% by weight of a wetting agent sold under the trade name "SYNPERONIC" NX until the liquid preparations contained the required concentration of the product. "SYNPERONIC" is a Registered Trade Mark.
(§6) The test procedure adopted with regard to each pest was basically the same and comprised supporting a number of the pests on a medium which was usually a host plant or a foodstuff on which the pests feed, and treating either or both the pests and the medium with the preparations. The mortality of the pests was then assessed at periods usually varying from one to seven days after the treatment.
(§7) The results of the tests are given in Table IX for each of the products as a grading of mortality designated as 9, 5 or 0 where 9 indicates 80-100% mortality (70-100% root-knot reduction as compared with untreated plants for Meloidogyne incognita), 5 indicates 50-79% mortality (50-69% root knot reduction for Meloidogyne incognita) and 0 indicates less than 50% mortality (root-knot reduction for Meloidogyne incognita).
(§8) In Table IX the pest organism used in designated by a letter code and the pests species, the support medium or food, and the type and duration of test is given in Table VII.

[11] = test system: Blattella germanica; assay: whole plant or invertebrate; conditions: 72 h, read-out: grading of mortality, BG
[12] = test system: Tetranyhus urticae (spider mites - ova); assay: whole plant or invertebrate; conditions: 144 h, read-out: grading of mortality, TUe
[13] = test system: Nilaparvata lugens; assay: whole plant or invertebrate; conditions: in Oryza sativa, 72 h, read-out: grading of mortality, NL
[14] = test system: Diabrotica balteata; assay: whole plant or invertebrate; conditions: in Zea mays, 72 h, read-out: grading of mortality, DB
[15] = test system: Musca domestica; assay: whole plant or invertebrate; conditions: 24 h, read-out: grading of mortality, MD
[16] = test system: Spodoptera exigua; assay: whole plant or invertebrate; conditions: in Gossypium hirsutum, 72 h, read-out: grading of mortality, SP
[17] = test system: Heliothis virescens; assay: insecticidal test, tobacco budworm - larvae; assay type: in vivo; conditions: in Gossypium hirsutum, 72 h, read-out: grading of mortality, HV
Procedure: as §5, §6, §7, §8

[18] = test system: Musca domestica; assay: knockdown properties against houseflies; assay type: in vivo; conditions: 2000 ppm solution (1 ml) sprayed directly
Procedure: A sample of compound 3 was diluted in 2 mls acetone and made upto a 2000 ppm solution with 0.1% aqueous synperonic solution. The solution (1 ml) was then sprayed directly onto twenty mixed sex houseflies held in a drinking cup. Immediately after spraying the cups were inverted and left to dry. An assessment of knockdown was made when the cups were righted 15 minutes later. The flies were then provided with a 10% sucrose solution on a cotton wool pad, and held for 48 hours in a holding room conditioned at 25° C. and 65% relative humidity before a mortality assessment was made.

[19] = test system: Nephotettix cincticeps; assay: whole plant or invertebrate; conditions: in Oryza sativa, 72 h, read-out: grading of mortality, NC

SMILES	disease control grading, CERCOSPCRA ARACHIDICOLA (Peanut) [1]	disease control grading, P[…] (Rice) [2]	disease control grading, VENTURIA INAEQUALIS (Apple) [3]	disease control grading, PUCCINIA RECONDITA (Wheat) [4]	disease control grading, […] (Vine) [5]	disease control grading, ERYSIPHE GRAMINIS (Barley) [6]	disease control grading, PH[…] (TOMATOES) [7]	mortality at 500 ppm [8] [%]	mortality at 500 ppm [9] [%]	grading of root-knot reduction, MI [10]	mortality at 500 ppm [11] [%]	mortality at 500 ppm [12] [%]	mortality at 500 ppm [13] [%]	mortality at 500 ppm [14] [%]	mortality at 500 ppm [15] [%]	mortality at 500 ppm [16] [%]	mortality at 500 ppm [17] [%]	knockdown ([18]; 15 minutes) [%]	kill ([18]; 48 hours, 25° C., 65% relative humidity) [%]	mortality at 500 ppm [19] [%]
CCOC(=O)/C=C/c1cccn1/C(=C\OC)C(=O)OC [(Z)-methyl 3-methoxy-2-[2-(E-2-carbethoxyethenyl)pyrrol-1-yl]acrylate]	4	4	4	4	4	0 (60-100% of disease on untreated plants)	4													
C=CCO/N=C\c1cccn1/C(=C\OC)C(=O)OC [Compound 4 of Table I]	4	4	4	4	4	4	4													
CO/C=C(/C(=O)OC)n1cccc1/C=N/OCc1ccccc1 [Compound 5 of Table I]	3 (trace - 5% of disease on untreated plants)	4	4	3 (trace - 5% of disease on untreated plants)	4	3 (trace - 5% of disease on untreated plants)	0 (60-100% of disease on untreated plants)													
CO/C=C(/C(=O)OC)n1cccc1/C=N\OC [Compound 2 of Table I]	4	3 (trace - 5% of disease on untreated plants)	4	4	4	4	0 (60-100% of disease on untreated plants)	80 to 100	80 to 100	0 (less than 50% mortality (root-knot reduction for Meloidogyne incognita))	< 50	< 50	< 50	50 to 79	< 50	< 50	< 50			
CO/C=C(/C(=O)OC)n1cccc1CN1CCOCC1 [Compound 5 of Table II]	4	0 (60-100% of disease on untreated plants)	4	2 (6-25% of disease on untreated plants)	0 (60-100% of disease on untreated plants)	2 (6-25% of disease on untreated plants)	0 (60-100% of disease on untreated plants)													
C#CCO/N=C/c1cccn1/C(=C\OC)C(=O)OC [Compound 7 of Table I]	4	4	4	4	4	4	3 (trace - 5% of disease on untreated plants)	80 to 100	< 50	0 (less than 50% mortality (root-knot reduction for Meloidogyne incognita))	50 to 79	< 50	< 50	80 to 100	< 50					
CO/C=C(/C(=O)OC)n1cccc1/C=N/OC [Compound 1 of Table I]	4	4	4	4	4	4	3 (trace - 5% of disease on untreated plants)													
C=CCO/N=C/c1cccn1/C(=C\OC)C(=O)OC [Compound 3 of Table I]	4		4	4	4	4	0 (60-100% of disease on untreated plants)	80 to 100	< 50	5 (50-69% root knot reduction for Meloidogyne incognita)	80 to 100	< 50	80 to 100	80 to 100	80 to 100	< 50	< 50	90	93	
CO/C=C(/C(=O)OC)n1cccc1/C=C/C(=O)OC	2 (6-25% of disease on untreated plants)	4	4	4	4	4	4	80 to 100	< 50	0 (less than 50% mortality (root-knot reduction for Meloidogyne incognita))	80 to 100	< 50		< 50	< 50		< 50			50 to 79
CCOC(=O)/C(C#N)=C/c1cccn1/C(=C\OC)C(=O)OC [Compound 19 of Table I]	3 (trace - 5% of disease on untreated plants)	0 (60-100% of disease on untreated plants)	0 (60-100% of disease on untreated plants)	4	4	0 (60-100% of disease on untreated plants)	0 (60-100% of disease on untreated plants)													
